In patent publication US20160228434A1, “TREATMENT OF DISEASES CAUSED BY ABNORMAL LYMPHOCYTE FUNCTION WITH AN HDAC6 INHIBITOR” (priority 2013, published 2016):

System: bone marrow pro-B cell (B220+CD43+) and pre-B cell (B220+CD43-) populations
Test: Bone marrow pro- and pre-B cell differentiation by flow cytometry in treated NZB/W mice
Type: in vivo
Text: Bone marrow cells were flushed in PBS with 1% BSA from the femurs of NZB/W mice following euthanization. Red blood cells (RBCs) were lysed using ammonium chloride potassium (ACK) lysing solution. Single-cell suspensions were then washed and stained with Allo-Phycocyanin (APC)-conjugated […] and Flourescein Isothiocyanate (FITC)-conjugated CD43 anti-mouse mAbs to identify pro-B cell (B220^+ CD43^+) and pre-B cell (B220^+ CD43^−) populations. Pro-B cell populations were further stained with Phycoerythirn (PE)-conjugated BP1 and PECy5 or Peridinin-chlorophyll proteins (PerCP)-conjugated CD24 anti-mouse mAbs to identify fractions A (B220^+ CD43^+ CD24^− BP1^−), B (B220^+ CD43^+ CD24^+ BP1^−), C (B220^+ CD43^+ CD24^lo BP1), and C′ (B220^+ CD43^+ CD24^hi BP1^+). Pre-B cells fractions were further stained with PE-conjugated IgD, and PECy5-conjugated IgM anti-mouse mAbs to identify fractions D (B220^+ CD43^− IgM^− IgD^−), E (B220^+ CD43^− IgM^+ IgD^−) and F (B220^+ CD43^− IgM^+ IgD^+). Fractions were measured by flow cytometric analysis. All antibodies were purchased from eBioscience (San Diego, Calif., USA). Flow cytometry was performed at that College of Veterinary Medicine Flow Cytometry Core Facility using a FACScan flow cytometer (Becton Dickinson, Franklin Lakes, N.J., USA). Flow cytometry data was analyzed using FlowJo Software (Tree Star, Ashland, Oreg., USA).
NZB/W mice were injected intraperitoneally 5 days/week with the vehicle control (DMSO), ACY-738 treatment at 5 mg/kg (low-dose), or ACY-738 treatment at 20 mg/kg (high-dose) beginning at 22-weeks-of-age until euthanization at 38 weeks-of-age. ACY-738 was received from Acetylon Pharmaceuticals for use in all studies. Proteinuria and weight were measured every 2 weeks and blood was collected every four weeks for sera analysis. Proteinuria was measured by a standard semi-quantitative test using Siemens Uristix dipsticks (Siemens Healthcare, Deerfield, Ill., USA). Results were quantified according to the manufacturer's instructions and scored as follows: dipstick reading of 0 mg/dL=0, trace=1, 30-100 mg/dL=2, 100-300 mg/dL=3, 300-2000 mg/dL=4, and 2000+ mg/dL=5.
Following treatment with ACY-738, harvested bone marrow cells were stained with B220 and CD43 and the percentage of pro- and pre-B cells was determined using flow cytometric analysis. FIG. 2A depicts a representative flow cytometry image of pro-B cell (B220^+ CD43^+) and pre-B cell (B220^+ CD43^−) populations.

[1] = both high (20 mg/kg) and low (5 mg/kg) dose
[2] = i.p. 5 days/week, 22 to 38 weeks-of-age, 5 or 20 mg/kg

O=C(NO)c1cnc(NC2(c3ccccc3)CC2)nc1 [ACY-738]
percentage of pre-B cells in fraction D [1]: significant increase
percentage of pre-B cells in fraction E [1]: significant increase
pre-B cells in fraction F [1]: decrease
pre-B cell population (B220+CD43-) in bone marrow (i.p. 5 days/week, 22 to 38 weeks-of-age, 5 and 20 mg/kg): significantly decreased in a dose-dependent manner
percentage of pro-B cells in fraction A [2]: significantly increased
percentage of pro-B cells in fraction C [2]: significantly increased
percentage of pro-B cells (B220+CD43+) in bone marrow (i.p. 5 days/week, 22 to 38 weeks-of-age, 5 or 20 mg/kg, vs vehicle): not significantly altered
